# Source: patent US8535897B2, “Assays for non-apoptotic cell death and uses thereof” (The Trustees of Columbia University in the City of New York, priority 2006, dated 2013)
# pIC50: −log10 of the molar value. Where a name gives a salt, the structure may show the parent alone.
# Experiments:
# [1] = test system: BJ-TERT/LT/ST/RAS^V12 cells; experiment: Cell death, viable cells counted using a hemacytometer; format: cell-based, human; details: 13 μM erastin Al, 23 μM antimycin, 126 μM 2-ME or the combinations
# [2] = test system: BJ-TERT/LT/ST/RAS^V12 cells; experiment: Suppression of erastin lethality by MEK inhibitors (Trypan Blue); format: cell-based, human; details: U0126 20 μM, MEK inhibitor I 10 μM, MEK 1/2 inhibitor 50 μM, 48 h
# Experimental: BJ-TERT/LT/ST/RASV12 engineered tumor cells were treated with the indicated concentrations of erastin and each MEK1/2 inhibitor for 24 hours and viability was determined by Trypan Blue exclusion.
# Cells grown in 175 cm^2 flasks were reseeded in 6-well format (1.4×10^5 cells/well) and treated with erastin dilutions (5-fold, from 36 uM to 60 nM, with no-drug control, n=2) in the presence of one of the MEK inhibitors U0126 (20 uM), MEK inhibitor I (10 uM), MEK 1/2 inhibitor (50 uM), PD98059 (50 uM), MEK inhibitor II (30 uM), or in the absence of inhibitor. After 48 hours, cells were trypsinized and counted using a Vi-CELL™ Series Cell Viability Analyzer. […] Non-linear regression was used to fit curves to the data points using GraphPad Prism™ software. The bottom of each curve was set to zero.
# [3] = test system: BJ-TERT/LT/ST/RAS^V12 cells; experiment: Suppression of erastin lethality by iron chelators (Alamar Blue); format: cell-based, human; details: 100 μM DFOM, 100 μM 1a, 100 μM 2, 10 μM or 1 μM 311, 24 h
# Experimental: BJ-TERT/LT/ST/RAS^V12 cells were treated with erastin and four different iron chelators, desferrioxamine mesylate (DFOM), the compounds 1a and 2 whose structures are shown in FIG. 30, and the compound “311” (311-10 or 311-1) (Green, D. A, et al., Inhibition of Malignant Cell Growth by 311, a novel iron chelator of the pyridoxal isonicotinoyl hydrazone class: Effect on the R2 subunit of ribonucleotide reductase. Clinical Cancer Research, (7): 3574-3579 (2001). Cell killing was measured by Alamar Blue assay.
# (a) BJ-TERT/LT/ST/RAS^V12 cells were treated with 9 μM erastin A1 for the indicated length of time, and the number of viable cells determined. (b) 1,000 BJ-TERT/LT/ST/RAS^V12 cells/well in 384-well plates were treated with erastin for 2 d, then alamar blue was added to a final concentration of 10% and the plates were incubated for 16 h. Red fluorescence resulting from reduction of alamar blue was detected on a Victor3 platereader. […] (e) The number of viable cells was quantified under each condition using a hemacytometer. […] BJ-TERT/LT/ST/RAS^V12 (shown in histogram plots, and in line graph as dark diamonds) or BJ-TERT cells (shown in line graph only, light circles) were treated with 4.6-μM erastin A1 and the level of intracellular oxidative species determined. […] ATP levels were measured, viable cells determined by Trypan Blue exclusion and ATP per viable cell determined. […]
# BJ-TERT/LT/ST/RASV12 = experiment: Alamar blue viability assay, engineered tumor cells; format: cell-based, human; details: for selective lethality / activity in cells: BJ-TERT/LT/ST/RAS^V12 cells vs BJ-TERT cells
# Experimental: Erastin was tested in a dilution series in five engineered cell lines derived from primary BJ fibroblasts. Cells were incubated with erastin for two days at 37° C. with 5% CO2, Alamar blue was added (10% final volume) and fluorescence measured (530 nm ex, 590 nm em). Cell lines harboring oncogenic RAS (triangles, circles and x's) were sensitive to erastin, but isogenic lines lacking oncogenic RAS (squares and diamonds) were resistant. Two different clones of engineered tumor cells (circles and triangles) responded similarly.
# (a) BJ-TERT/LT/ST/RAS^V12 cells were treated with 9 μM erastin A1 for the indicated length of time, and the number of viable cells determined. (b) 1,000 BJ-TERT/LT/ST/RAS^V12 cells/well in 384-well plates were treated with erastin for 2 d, then alamar blue was added to a final concentration of 10% and the plates were incubated for 16 h. Red fluorescence resulting from reduction of alamar blue was detected on a Victor3 platereader. The percent growth inhibition is shown; error bars represent one SD. […] (c) TEM images (20,000× magnification) of BJ-TERT/LT/ST/RAS^V12 mitochondria after cells were treated with nothing, erastin (37 μM for 10 h) or staurosporine (STS, 1 μM for 5 h), and phase-contrast photograph of BJ-TERT/LT/ST/RAS^V12 cells 24 h after 9 μM erastin A1 treatment is also shown to indicate that even after cell death, nuclei are intact. (d) Anti-oxidants suppress erastin-induced death. BJ-TERT/LT/ST/RAS^V12 cells were treated as indicated and photographed. (e) The number of viable cells was quantified under each condition using a hemacytometer. (f) Iron chelators suppress erastin-induced cell death. Cells were seeded in 384-well plates (6,000 cells/well) and treated with 2-fold dilution series of erastin in the presence of 100 μM desferrioxamine mesylate (DFOM), 100 μM of iron chelator 1a, 100 μM of iron chelator 2, 10 μM or 1 μM of iron chelator 311. After 24 h, alamar blue was added and cell viability assayed. (g, h) Erastin-induced formation of oxidative species. BJ-TERT/LT/ST/RAS^V12 (shown in histogram plots, and in line graph as dark diamonds) or BJ-TERT cells (shown in line graph only, light circles) were treated with 4.6-μM erastin A1 and the level of intracellular oxidative species determined. (i, j) STS, but not erastin, induces PARP1 cleavage (red bands at top) in BJ-TERT/LT/ST/RAS^V12 cells and in A673, HT1080 and HeLa cells. NS: non-specific band. […] Cells were treated with STS or erastin, separated into mitochondrial and cytosolic fractions, and probed for cytochrome c (lower red band) and total VDAC (middle green band, pan-VDAC antibody). (1) Caspase-3 is not cleaved in response to erastin. Cells were treated as indicated and probed with an anti-caspase-3 antibody that recognizes both the full length and the cleaved, active form (lower band). […] ATP levels were measured, viable cells determined by Trypan Blue exclusion and ATP per viable cell determined. Abbreviations: DMSO, dimethylsulfoxide; BHT, butylated hydroxytoluene; TOC, alpha-tocopherol; ERA, erastin A1; CAR, beta-carotene; STS, staurosprine.
# (a) Calu-1 lung carcinoma cells harboring oncogenic KRAS were infected with lentivirus containing shRNAs targeting KRAS or GFP. Sequences of shRNAs are indicated by starting nucleotide (nt) in the KRAS mRNA coding sequence. Cells were treated with erastin and viability measured by Trypan Blue exclusion. (b) Knockdown of KRAS was confirmed by western blot. (c,d) A673 cells harboring oncogenic BRAF were infected with lentiviral shRNAs targeting BRAF exon 5 (c) or the 5′ UTR (d), luciferase (LUC)(c) or GFP (d). Cells were treated with erastin and viability measured using Alamar Blue (c) and Trypan Blue (d). (e) Knockdown of BRAF was confirmed by western blot. […] BJ-TERT/LT/ST/RAS^V12 cells were treated with erastin alone or in with a MEK inhibitor U0126 (20 μM), MEK inhibitor I (10 μM) or MEK 1/2 inhibitor (50 μM). After 48 h, viability was determined using Trypan Blue. […]
# VDAC1, VDAC2 and VDAC3 = experiment: VDAC chemi-proteomic identification (pull-down on immobilized erastin analogs); format: binding, human; details: BJ-TERT/LT/ST/RAS^V12 cell lysates
# Excerpt: Erastin A6, Erastin A3, and erastin B2 were immobilized on solid-phase resins, and proteins that interact with A3 or A6, but not B2 were identified. […] In certain embodiments, wherein BJ-TERT cell lysates were used, a small amount of VDAC1 on the A3 and A6 resins was identified, but none of the VDACs were bound on the B2 resin. Thus, it appears that erastin A3 and A6 more efficiently isolate VDAC2 and VDAC3 compared to erastin B2.
# Cultures of BJ-TERT and BJ-TERT/LT/ST/RAS^V12 cells (ten 150 mm plates) were washed with PBS, lysed in 25 mM hydroxyethylpiperazine-N′-2-ethanesulfonic acid (HEPES) pH 7.5, 150 mM NaCl, 1% NP-40, 10 mM MgCl2, 1 mM ethylene-diamine tetra acetate (EDTA), 10% glycerol, 1 mM dithiothreitol (DTT) and protease inhibitor cocktail. Protein concentration was determined using a Bradford colorimetric assay.
# Erastin A3 and B2 were dissolved in DMSO at 10 mg/ml. 100 μL of AffiGel-10 was washed and resuspended in 400 μl DMSO. 10 μL of compound and 3 μL of 1:100 dilution of triethylamine in DMSO were added. […] Samples were analyzed using both a 4700 Proteomics Analyzer MALDI-TOF/TOF (TOF/TOF; Applied Biosystems) and a Q Trap (AB/MDS Sciez) and the peptide level data were combined. […]
# BJELR cells = experiment: Sensitivity after upregulation of VDACs by nucleofection; format: cell-based, human
# Excerpt: Quantitative western blot showing the ratio of VDACs (top band, green) to eif4E (bottom band, red) (e). […] Green, untransfected BJELR cells; blue, mock nucleofected BJELR cells; red, VDAC2/3-nucleofected BJELR cells (f).
# In certain aspects, the invention provides that erastin acts by a gain-of-function mechanism and that cells with more VDAC proteins are more sensitive to erastin. A gain-of-function mechanism operates in cells which have increased levels of topoisomerase I and are thus more sensitive to camptothecin^149. […] In other embodiments, cell lines can be stably transfected with vectors expressing VDAC1, 2, and/or 3. Thus, increased VDAC expression leads to erastin sensitivity which is consistent with a gain of function mechanism. Furthermore, a knockdown of VDACs causes erastin resistance.
molecule,measurement,setting,value
"COc1cc2c(cc1O)CC[C@@H]1[C@@H]2CC[C@]2(C)[C@@H](O)CC[C@@H]12 [2-ME, 2-methoxyestradiol]",Cell death (%),[1],66%
N#CC(=C(N)Sc1ccc(N)cc1)c1ccccc1C(F)(F)F [MEK 1/2 inhibitor],effect of MEK inhibitor on erastin lethality,[2],prevent erastin lethality
N#C/C(=C(/N)Sc1ccccc1N)c1cccc(C(O)c2ccncc2)c1 (stereo not drawn) [MEK inhibitor I],effect of MEK inhibitor on erastin lethality,[2],prevent erastin lethality
N#CC(=C(/N)Sc1ccccc1N)/C(C#N)=C(\N)Sc1ccccc1N [U0126],effect of MEK inhibitor on erastin lethality,[2],prevent erastin lethality
O=C(N/N=C/c1c(O)ccc2ccccc12)c1ccncc1 [compound 311],effect of iron chelator on erastin lethality,[3],suppress erastin lethality
CC(=O)N(O)CCCCCNC(=O)CCC(=O)N(O)CCCCCNC(=O)CCC(=O)N(O)CCCCCN [desferrioxamine mesylate],effect of iron chelator on erastin lethality,[3],suppress erastin lethality
CCOc1ccccc1-n1c(C(C)N2CCN(C(=O)COc3ccc(CN)cc3)CC2)nc2ccccc2c1=O (stereo not drawn) [erastin A3],selective lethality / activity in cells,BJ-TERT/LT/ST/RASV12,retained the ability to kill BJ-TERT/LT/ST/RAS^V12 cells but not BJ-TERT cells
same,VDAC isoforms identified on the immobilized analog resin,"VDAC1, VDAC2 and VDAC3","all three isoforms of the human mitochondrial voltage-dependent anion channels (VDAC1, VDAC2 and VDAC3) were identified"
CCOc1ccccc1-n1c(C(C)N2CCN(C(=O)COc3ccc(CN)cc3)CC2)nc2ccccc2c1=O (stereo not drawn) [erastin A6],selective lethality / activity in cells,BJ-TERT/LT/ST/RASV12; listed as ERA-A6,selectively lethal to RASV12-expressing cells
same,VDAC isoforms identified on the immobilized analog resin,"VDAC1, VDAC2 and VDAC3","all three isoforms of the human mitochondrial voltage-dependent anion channels (VDAC1, VDAC2 and VDAC3) were identified"
CCOc1ccccc1-n1c(C(C)N2CCN(C(C)=O)CC2)nc2ccccc2c1=O (stereo not drawn) [erastin A8],selective lethality / activity in cells,BJ-TERT/LT/ST/RASV12,inactive
CCOc1ccccc1-n1c(C(C)N2CCN(C(=O)COc3ccc(Cl)cc3)CC2)nc2cc(NC(C)=O)ccc2c1=O (stereo not drawn) [erastin A9],pIC50,BJ-TERT/LT/ST/RASV12; BJELR (BJ-TERT/LT/ST/RAS^V12) cells,5.72
CC(C)NC(=O)N(CCN1CCN(C(=O)COc2ccc(Cl)cc2)CC1)Cc1ccc(F)cc1 [erastin B1],selective lethality / activity in cells,BJ-TERT/LT/ST/RASV12,inactive
CC(C)NC(=O)N(CCN1CCN(C(=O)COc2ccc(Cl)cc2)CC1)Cc1ccc(CN)cc1 [erastin B2],selective lethality / activity in cells,BJ-TERT/LT/ST/RASV12,lacks activity
same,lethality (no lethality up to),BJ-TERT/LT/ST/RASV12; BJELR cells,> 50 µM
same,VDAC isoforms identified on the immobilized analog resin,"VDAC1, VDAC2 and VDAC3",only VDAC1
COc1cc([C@@H]2c3cc4c(cc3[C@H](O)[C@H]3COC(=O)[C@H]23)OCO4)cc(OC)c1OC [podophyllotoxin],change in sensitivity/potency after upregulation of VDAC proteins by nucleofection,BJELR cells,did not change the potency
antimycin,Cell death (%),[1],51%
